Key:
RARγ = target: T1, RARγ (Homo sapiens, UniProt P13631); experiment: chimeric receptor transactivation assay, RARγ; format: cell-based
T1 sequence (P13631 185-419 limits assumed): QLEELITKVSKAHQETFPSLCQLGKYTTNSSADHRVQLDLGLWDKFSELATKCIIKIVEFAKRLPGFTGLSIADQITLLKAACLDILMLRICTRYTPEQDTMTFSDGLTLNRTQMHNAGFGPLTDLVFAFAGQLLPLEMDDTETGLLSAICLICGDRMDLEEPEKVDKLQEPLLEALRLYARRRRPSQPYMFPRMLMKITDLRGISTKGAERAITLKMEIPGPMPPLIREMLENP
From the text: (§1) One such assay is a chimeric receptor transactivation assay which tests for agonist-like activity in the RARα RARβ and RARγ receptor subtypes, and which is based on work published by Feigner P. L. and Holm M. (1989) Focus, 112 is described in detail in U.S. Pat. No. 5,455,265. The specification of U.S. Pat. No. 5,455,265 is hereby expressly incorporated by reference.
(§2) Table 1 discloses the activity of certain exemplary compounds of the invention in the above-described receptor transactivation and binding assays. Particularly, the transactivation data pertaining to activation of the RAR receptors were obtained in the chimeric assay, and the transactivation data pertaining to the activation of RXR receptors were obtained in the holoreceptor assay.

RARα [1] = target: T2, RARα (Homo sapiens, UniProt P10276); experiment: chimeric receptor transactivation assay, RARα; format: cell-based
T2 sequence (P10276 183-417 limits assumed): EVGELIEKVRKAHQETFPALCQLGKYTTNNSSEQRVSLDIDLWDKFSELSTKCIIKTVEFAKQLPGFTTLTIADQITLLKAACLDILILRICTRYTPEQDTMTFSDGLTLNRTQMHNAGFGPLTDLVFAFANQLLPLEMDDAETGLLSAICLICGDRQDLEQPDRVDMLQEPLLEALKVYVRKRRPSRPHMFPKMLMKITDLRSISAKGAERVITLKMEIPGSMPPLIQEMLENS
From the text: as §1, §2

RXRβ = target: T3, RXRβ (Homo sapiens, UniProt P28702); experiment: holoreceptor transactivation assay, RXRβ; format: cell-based; conditions: for RXR Trans. efficacy β: efficacy as a percentage compared to the standard compound; for EC50: holoreceptor assay, read-out: RXR Trans. EC50 β; for efficacy in activating RXRβ compared with RXRα and RXRγ: transactivation, comparison of subtypes
T3 construct: expressed in transfected cells
T3 sequence (P28702 1-533): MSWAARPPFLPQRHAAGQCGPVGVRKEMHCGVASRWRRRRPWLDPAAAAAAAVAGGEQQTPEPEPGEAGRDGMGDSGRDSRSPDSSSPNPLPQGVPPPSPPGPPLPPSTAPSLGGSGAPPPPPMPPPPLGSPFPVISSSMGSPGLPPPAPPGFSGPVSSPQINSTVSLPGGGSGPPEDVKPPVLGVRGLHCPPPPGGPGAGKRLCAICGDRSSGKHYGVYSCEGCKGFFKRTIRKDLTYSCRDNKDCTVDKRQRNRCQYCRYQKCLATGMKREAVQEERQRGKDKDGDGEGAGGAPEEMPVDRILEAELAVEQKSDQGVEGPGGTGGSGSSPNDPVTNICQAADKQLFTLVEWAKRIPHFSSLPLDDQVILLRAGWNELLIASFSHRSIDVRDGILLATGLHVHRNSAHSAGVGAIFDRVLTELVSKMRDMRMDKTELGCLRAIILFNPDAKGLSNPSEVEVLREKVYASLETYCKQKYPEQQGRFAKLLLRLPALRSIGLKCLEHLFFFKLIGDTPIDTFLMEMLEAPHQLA
From the text: (§3) Particularly, the transactivation data pertaining to activation of the RAR receptors were obtained in the chimeric assay, and the transactivation data pertaining to the activation of RXR receptors were obtained in the holoreceptor assay.

RARα [2] = target: T4, RARα (Homo sapiens, UniProt P10276); experiment: ligand binding assay, RARα; conditions: read-out: RAR Bind. K1 α
T4 sequence (P10276 1-462): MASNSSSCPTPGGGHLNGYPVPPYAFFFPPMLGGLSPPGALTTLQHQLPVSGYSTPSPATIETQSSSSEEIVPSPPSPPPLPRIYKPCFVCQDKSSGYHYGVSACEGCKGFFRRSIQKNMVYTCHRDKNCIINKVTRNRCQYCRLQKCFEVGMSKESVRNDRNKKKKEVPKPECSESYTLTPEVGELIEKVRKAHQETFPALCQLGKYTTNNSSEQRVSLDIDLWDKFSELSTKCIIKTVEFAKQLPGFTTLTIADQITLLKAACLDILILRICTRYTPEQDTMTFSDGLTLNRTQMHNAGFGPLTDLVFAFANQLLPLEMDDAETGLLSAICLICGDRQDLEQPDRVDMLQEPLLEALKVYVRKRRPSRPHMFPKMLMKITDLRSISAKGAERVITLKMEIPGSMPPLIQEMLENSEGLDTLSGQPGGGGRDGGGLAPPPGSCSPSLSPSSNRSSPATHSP
From the text: The results obtained in this assay are expressed in EC50 numbers, as they are also in the chimeric receptor transactivation assay. The results of the ligand binding assay are expressed in Ki numbers.

RXRγ = target: T5, RXRγ (Homo sapiens, UniProt P48443); experiment: holoreceptor transactivation assay, RXRγ; format: cell-based; conditions: for RXR Trans. efficacy γ: efficacy as a percentage compared to the standard compound; for EC50: holoreceptor assay, read-out: RXR Trans. EC50 γ
T5 construct: expressed in transfected cells
T5 sequence (P48443 1-463): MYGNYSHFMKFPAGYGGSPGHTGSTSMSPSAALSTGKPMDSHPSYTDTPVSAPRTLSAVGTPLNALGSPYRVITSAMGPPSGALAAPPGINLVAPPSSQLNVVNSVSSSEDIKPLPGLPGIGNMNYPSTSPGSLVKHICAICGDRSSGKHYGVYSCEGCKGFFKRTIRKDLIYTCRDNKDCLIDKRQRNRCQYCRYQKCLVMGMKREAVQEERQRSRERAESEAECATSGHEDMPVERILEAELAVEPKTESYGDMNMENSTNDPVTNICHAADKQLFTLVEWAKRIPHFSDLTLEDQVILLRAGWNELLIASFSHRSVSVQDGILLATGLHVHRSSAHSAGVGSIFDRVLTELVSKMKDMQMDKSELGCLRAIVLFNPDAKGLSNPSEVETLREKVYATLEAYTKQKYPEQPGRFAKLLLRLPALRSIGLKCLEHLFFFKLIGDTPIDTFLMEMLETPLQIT
From the text: as §3

[3] = test system: female diabetic db/db mice; experiment: serum glucose, triglyceride and thyroxine levels in db/db mice; format: in vivo; conditions: female db/db mice, Compound 27 50 mg/kg
Method: An assay described below tests the effect of compounds of the invention on serum glucose, tryglyceride and thyroxine levels in female 9-10 weeks old db/db mice.
Blood samples (70 μl) were taken by orbital bleeding at 11:00 AM on day 0 (pre-treatment), day 3, and day 6. On day 7, a blood sample (700 μl) was taken at 11:00 AM and the animals were sacrificed. Glucose, triglyceride and thyroxine (T4) levels were determined on a Boehringer Manheim Hatachi Clinical Chemistry Analyzer using standard protocols provided by the manufacturer and reagents that were supplied in commercially available kits (glucose and T4; Boehringer Manheim; triglycerides: Roche Diagnostics). Seven animals were treated in each group.

[4] = efficacy as a percentage compared to the standard compound
[5] = day 0 (pre-treatment), groups: standard compound 5 mg/kg
[6] = oral gavage daily, standard compound 5 mg/kg

Row | EC50 (RARγ; chimeric assay, read-out: RAR Trans. EC50 γ) | RAR Trans. efficacy γ (RARγ; [4]) | EC50 (RARα [1]; chimeric assay, read-out: RAR Trans. EC50 α) | RAR Trans. efficacy α (RARα [1]; [4]) | RXR Trans. efficacy β (RXRβ) | EC50 (RXRβ) | Ki (RARα [2]) | RXR Trans. efficacy γ (RXRγ) | EC50 (RXRγ) | T4 Day 7 ([3]; oral gavage daily for seven days, standard compound 5 mg/kg) | SMILES | efficacy in activating RXRβ compared with RXRα and RXRγ (RXRβ) | Glucose Day 0 [3, 5] | Triglycerides Day 0 [3, 5] | Glucose Day 3, 3 h [3, 6] | Glucose Day 6, 3 h [3, 6] | Triglycerides Day 3, 3 h [3, 6]
1 | 0.18 µM | 28% | 0.005 µM | 12% | 24% | 0.043 µM | 1.8 µM | – | – | – | CCCOc1cc2c(cc1\C(C)=C(F)/C=C/C(C)=C(\F)C(=O)O)C(C)(C)CCC2(C)C [Compound 11, (2Z,4E,6E)-2,6-Difluoro-3-methyl-7-(5,5,8,8-tetramethyl-3-propoxy-5,6,7,8-tetrahydro-naphthalen-2-yl)-octa-2,4,6-trienoic acid] | significantly more effective in activating the RXRβ subtype | – | – | – | – | –
2 | – | – | – | – | 45% | 0.091 µM | 0.26 µM | 36% | 0.008 µM | – | CC/C(=C(F)/C=C/C(C)=C(\F)C(=O)O)c1cc2c(cc1OCOC)C(C)(C)CCC2(C)C [Compound 21, (2Z,4E,6E)-2,6-Difluoro-7-(3-methoxymethoxy-5,5,8,8-tetramethyl-5,6,7,8-tetrahydro-naphthalen-2-yl)-3-methyl-nona-2,4,6-trienoic acid] | significantly more effective in activating the RXRβ subtype | – | – | – | – | –
3 | – | – | – | – | 43% | 0.032 µM | 0.93 µM | 23% | 0.003 µM | 3.9 ± 0.9 µg/dL | CCOc1cc2c(cc1\C(CC)=C(F)/C=C/C(C)=C(\F)C(=O)O)C(C)(C)CCC2(C)C [Compound 27, (2Z,4E,6E)-7-(3-Ethoxy-5,5,8,8-tetramethyl-5,6,7,8-tetrahydro-naphthalen-2-yl)-2,6-difluoro-3-methyl-nona-2,4,6-trienoic acid] | significantly more effective in activating the RXRβ subtype | 384 mg/dL | 152 mg/dL | 290 mg/dL | 225 mg/dL | 106 mg/dL
